Test results reported in ChEMBL document CHEMBL3580639, “Bioactive Limonoid Constituents of Munronia henryi” (J Nat Prod, 2015).
Values after ≈ are worked out from the molar mass of the structure shown.

How the values were obtained:
MCF7 = assay: Cytotoxicity against human MCF7 cells incubated for 48 hrs by MTT assay; assay type: functional, cell-based; settings: MCF7, 48 h
Tobacco mosaic virus [1] = assay: (§1) Antiviral activity against 30 mins compound pre-treated TMV U1 infected on Nicotiana glutinosa leaves assessed as virus inactivation effect by measuring local lesion numbers after 3 to 4 days post virus inoculation at 30 ug/ml by half-leaf method relative to untreated control; assay type: functional; settings: U1, in Nicotiana glutinosa
HL-60 = assay: Cytotoxicity against human HL60 cells incubated for 48 hrs by MTT assay; assay type: functional, cell-based; settings: HL-60, 48 h
Tobacco mosaic virus [2] = assay: Antiviral activity against 30 mins compound pre-treated TMV U1 infected on Nicotiana glutinosa leaves assessed as virus inactivation effect by measuring local lesion numbers after 3 to 4 days post virus inoculation at 20 ug/ml by half-leaf method relative to untreated control; assay type: functional; settings: U1, in Nicotiana glutinosa
Tobacco mosaic virus [3] = assay: Antiviral activity against TMV U1 infected on compound smeared Nicotiana glutinosa leaves assessed as virus infection protective effect by measuring local lesion numbers after 3 to 4 days post virus inoculation at 200 ug/ml by half-leaf method; assay type: functional; settings: U1, in Nicotiana glutinosa
Tobacco mosaic virus [4] = assay: Antiviral activity against 30 mins compound pre-treated TMV U1 infected on Nicotiana glutinosa leaves assessed as virus inactivation effect by measuring local lesion numbers after 3 to 4 days post virus inoculation at 50 ug/ml by half-leaf method relative to untreated control; assay type: functional; settings: U1, in Nicotiana glutinosa
Tobacco mosaic virus [5] = assay: Antiviral activity against 30 mins compound pre-treated TMV U1 infected on Nicotiana glutinosa leaves assessed as virus inactivation effect by measuring local lesion numbers after 3 to 4 days post virus inoculation at 50 ug/ml by half-leaf method; assay type: functional; settings: U1, in Nicotiana glutinosa
A549 = assay: Cytotoxicity against human A549 cells incubated for 48 hrs by MTT assay; assay type: functional, cell-based; settings: A549, 48 h
Tobacco mosaic virus [6] = assay: as §1, with “Potency index, ratio of IC50 for ningnanmycin to IC50 for test compound” for “Antiviral activity”, “inoculation” for “inoculation at 30 ug/ml”; assay type: functional
Tobacco mosaic virus [7] = assay: Antiviral activity against 30 mins compound pre-treated TMV U1 infected on Nicotiana glutinosa leaves assessed as virus inactivation effect by measuring local lesion numbers after 3 to 4 days post virus inoculation by half-leaf method relative to untreated control; assay type: functional, organism-based
Tobacco mosaic virus [8] = assay: Antiviral activity against 30 mins compound pre-treated TMV U1 infected on Nicotiana glutinosa leaves assessed as virus inactivation effect by measuring local lesion numbers after 3 to 4 days post virus inoculation at 5 ug/ml by half-leaf method relative to untreated control; assay type: functional; settings: U1, in Nicotiana glutinosa
Tobacco mosaic virus [9] = assay: Antiviral activity against 30 mins compound pre-treated TMV U1 infected on Nicotiana glutinosa leaves assessed as virus inactivation effect by measuring local lesion numbers after 3 to 4 days post virus inoculation at 10 ug/ml by half-leaf method relative to untreated control; assay type: functional; settings: U1, in Nicotiana glutinosa
SW480 = assay: Cytotoxicity against human SW480 cells incubated for 48 hrs by MTT assay; assay type: functional, cell-based; settings: SW480, 48 h
SMMC-7721 = assay: Cytotoxicity against human SMMC7721 cells incubated for 48 hrs by MTT assay; assay type: functional, cell-based; settings: SMMC-7721, 48 h
Tobacco mosaic virus [10] = assay: Antiviral activity against TMV U1 infected on 20 mins compound treated fresh leaves from 5 to 6 growth stage Nicotiana glutinosa assessed as inhibition of virus growth at 50 ug/ml cultured at 25 degC for 72 hrs by half-leaf method; assay type: functional; settings: U1, in Nicotiana glutinosa
Tobacco mosaic virus [11] = assay: Antiviral activity against TMV U1 infected on Nicotiana glutinosa leaves smeared with virus before compound treatment assessed as virus infection curative effect by measuring local lesion numbers after 3 to 4 days post virus inoculation at 200 ug/ml by half-leaf method; assay type: functional; settings: U1, in Nicotiana glutinosa
Tobacco mosaic virus [12] = assay: Antiviral activity against 30 mins compound pre-treated TMV U1 infected on Nicotiana glutinosa leaves assessed as virus inactivation effect by measuring local lesion numbers after 3 to 4 days post virus inoculation at 40 ug/ml by half-leaf method relative to untreated control; assay type: functional; settings: U1, in Nicotiana glutinosa

Structure (SMILES) | IC50 (MCF7) [µM] | inhibition at 30 µg/mL (Tobacco mosaic virus [1]) [%] | IC50 (HL-60) [µM] | inhibition at 20 µg/mL (Tobacco mosaic virus [2]) [%] | inhibition at 200 µg/mL (Tobacco mosaic virus [3]) [%] | inhibition at 50 µg/mL (Tobacco mosaic virus [4]) [%] | inhibition at 50 µg/mL (Tobacco mosaic virus [5]) [%] | IC50 (A549) [µM] | Ratio IC50 (Tobacco mosaic virus [6]) | IC50 (Tobacco mosaic virus [7]) [µg/mL] | inhibition at 5 µg/mL (Tobacco mosaic virus [8]) [%] | inhibition at 10 µg/mL (Tobacco mosaic virus [9]) [%] | IC50 (SW480) [µM] | IC50 (SMMC-7721) [µM] | inhibition at 50 µg/mL (Tobacco mosaic virus [10]) [%] | inhibition at 200 µg/mL (Tobacco mosaic virus [11]) [%] | inhibition at 40 µg/mL (Tobacco mosaic virus [12]) [%]
CC(=O)O[C@@H]1[C@@H]2[C@@]3(C)C=CC(=O)OC(C)(C)[C@@H]3CC(=O)[C@@]2(C)[C@@]23O[C@@H]2C[C@@H](c2ccoc2)[C@]3(C)[C@H]1OC(C)=O | > 10 | 86.1 | > 10 | 62.3 | 56.7 | 95.6 | 98.2 | > 10 | 2 | 19.6 (≈ 36.3 µM) | 11.8 | 30.9 | > 10 | > 10 | 98.9 | 52.8 | 92.3
CC(=O)O[C@H]1C[C@H]2[C@](C)(C3=CC[C@@H](c4ccoc4)[C@@]31C)[C@H](OC(C)=O)C[C@H]1C(C)(C)OC(=O)C[C@H](OC(C)=O)[C@@]12C [MUNRONOID L] | > 10 | 51.4 | > 10 | 48 | 42.1 | 60.8 | 61.4 | > 10 | – | 29 (≈ 50.8 µM) | 10.2 | 21.5 | > 10 | > 10 | 80 | 23.7 | 57.6
